Test results published in patent US5422341A, “Motilin-like polypeptides with gastrointestinal motor stimulating activity” (Ohmeda Pharmaceutical Products Division Inc., priority 1993, dated 1995).
Structures can show the parent of a compound that is named as a salt. Square brackets hold non-standard residues; d marks the D form. Peptide text beside a SMILES is read from it. * marks the point of attachment. X1 = C[N+](C)(C)[C@@H](Cc1ccccc1)C(=O)*; NMe2Phe = CN(C)[C@@H](Cc1ccccc1)C(=O)*; NMeF = CN[C@@H](Cc1ccccc1)C(=O)O

Key:
[1] = tested on: canine gastrointestinal tract; assay: Contractile activity in the canine gastrointestinal tract; assay type: in vivo, dog; conditions: anesthetized dogs, intra-arterial injection to a duodenal segment; amount giving 50% of the calibration response to field stimulation
Protocol: Mongrel dogs of either sex were anesthetized with sodium pentobarbital 65 mg/kg intravenously. A mid-line incision was made in the abdomen. A duodenal segment was located, the terminal arteries to that segment were identified, and the closest possible artery of the appropriate size was rubbed clean of fat and fascia. A needle of suitable diameter was bent at an angle and the tip inserted in the cleaned artery. The needle was held in position in the artery for approximately 30 seconds until vascular spasm has relaxed and then a catheter assembly was inserted into the artery and tied into position with 000 silk sutures. The fine polyethylene catheter (10-15 cm) was cut to a point at one end with a needle inserted at the other end. The hub of the needle was fitted with a 3-way stopcock and the catheter assembly was filled with heparinized Krebs Ringer bicarbonate containing 10 mM glucose. A bolus of Krebs (free of air) was injected into the arterial catheter and the distribution of blanching in the segment noted. If the area was too large, collateral arteries may be tied off as long as circulation to the area was maintained. A Bass type strain gauge was then sutured to the serosa, and oriented so that circular muscle contractions can be recorded on a Beckman R611 dynograph. Silver wire electrodes were inserted subserosally on either side of the strain gauge and were connected through stimulus isolation units to a Grass S88 electrical stimulator. Electrical field stimulation was applied at 40 V 0.5 ms and 5 pps and the amplitude of the pen recorder was set to contain the contractile response.
All peptides to be injected were dissolved in Krebs and serial dilutions were prepared so that for any concentration the maximum volume to be injected was 1 ml. All solutions except stock Krebs were held on ice for the day of the experiment and discarded at the end of the day. For determination of a dose-response curve, the site was first injected with a bolus of approximately 1 ml of heparinized Krebs to provide a flush control. Peptide agonists (in volumes of 1 ml flushed with 1 ml of Krebs) were injected in logarithmic increments until a response which was maximal in amplitude was obtained. The injection site was then flushed with Krebs containing 0.1% BSA to displace any peptide remaining in the arterial line. For peptides acting at the motilin receptor, care was taken not to inject supramaximal doses as these will induce tachyphylaxis. Therefore, as responses become apparent, 0.3 or 0.5 log unit increments were used. A site was used for a dose-response determination only every 1/2 to 1 hour.
The amplitude of the calibration response to field stimulation in each site was measured and used as 100% for that site. The amplitude of the response to the agonist at each dose was determined, calculated as a % of the calibration response and plotted against the concentration. The ED50 of the response represents the amount of agonist required to produce a response which was 50% of the calibration response.

motilin receptor = target: T1, motilin receptor (Oryctolagus cuniculus, UniProt G1T803); assay: Determination of motilin receptor binding affinity (displacement of [125I-Tyr7, Nle13]motilin(porcine)); parameters: species or system rabbit; conditions: negative logarithm of the concentration displacing 50% of [125I-Tyr7, Nle13]motilin(porcine) from rabbit antral smooth muscle membranes; read-out: pIC50 (converted)
T1 construct: from tissue; host or cells: rabbit antral smooth muscle membranes
T1 sequence (G1T803 1-400): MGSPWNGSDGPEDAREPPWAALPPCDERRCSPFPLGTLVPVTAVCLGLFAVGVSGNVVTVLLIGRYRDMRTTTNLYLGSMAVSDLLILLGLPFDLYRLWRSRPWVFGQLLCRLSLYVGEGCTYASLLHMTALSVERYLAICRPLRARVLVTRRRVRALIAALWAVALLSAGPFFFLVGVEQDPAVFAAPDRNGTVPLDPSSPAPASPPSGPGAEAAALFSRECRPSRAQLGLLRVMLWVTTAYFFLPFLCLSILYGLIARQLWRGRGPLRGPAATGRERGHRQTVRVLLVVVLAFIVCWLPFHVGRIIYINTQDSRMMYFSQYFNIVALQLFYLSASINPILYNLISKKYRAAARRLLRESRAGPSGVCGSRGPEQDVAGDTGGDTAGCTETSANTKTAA
Protocol: The motilin receptor binding affinity of the peptides of this invention was determined by using the general procedure of Bormans, Peelers and Vantrappen, Regul. […] Fitting was performed using the iterative least-squares procedure of the SAS-software package (SAS Institute, Inc., Cary, N.C., USA).

[2] = target: segments of rabbit duodenum (Oryctolagus cuniculus, UniProt G1T803); assay: Rabbit duodenal smooth muscle strip tissue bath assay; assay type: cell-based; conditions: negative logarithm of the dose giving 50% of the maximal response to motilin; isotonic contraction of rabbit duodenum segments
Chain of segments of rabbit duodenum (G1T803 1-400): as above
In short: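 Isotonic contraction of rabbit duodenal segments after 1 h equilibration and 10^-4 M acetylcholine challenge; cumulative compound curve over 10^-11 to 10^-4 M, then 10^-7 M motilin. Runs discarded if final acetylcholine response differed >5%. EC50 at 50% of maximal motilin response, reported as pEC50.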

[3] = assay type: in vitro ADME, hog; conditions: pH 7
Protocol: Like most small linear polypeptides, motilin is believed to be metabolized lo by the brush border cells of the kidney. Therefore, kidney homogenate was chosen as the model system for assessing the relative in vivo biostability of the peptides of this invention. All peptides to be studied were incubated in hog kidney (Pel Freeze, Inc., Rogers, Ark.) (2% w/v; final volume=4 ml; buffer=HEPES pH 7.0) at 25° C. Both initial substrate concentration and internal standard (Fmoc-Gly) concentration were 0.5 mg/ml. In order to determine suitable incubation times and sampling intervals, two experiments were conducted with each polypeptide. The first run served as a rough estimate of peptide stability. All sampling was performed in duplicate. Sample volume was 180 μl.
Sample clean-up was performed by addition of 20 μl of 100% TCA (final volume=200 μl; final TCA concentration=10%). The sample was vortexed for from 5 to 10 seconds to ensure equilibration, then centrifuged to spin out the precipitated proteins. Analysis was carried out on a Waters HPLC system with a WISP autoinjector, a 5μ Vydac C-18 analytical column, and a Waters 481 UV detector set at 214 nm. Injection volume was 80 μl. Initial solvent conditions were […] in Milli-Q water with a 35 minute gradient running to 63% acetonitrile/37% (0.1%) TFA at 1 ml/min.
Polypeptide substrate and metabolite peaks were ratioed to the internal standard and the duplicate sample ratios were averaged. The avenge ratio for the peptide substrate was expressed as a percentage and plotted versus time. First-order kinetics was assumed for data treatment. The rate of disappearance of the substrate was calculated using the Enzfitter program (Biosoft). Relative half-lives were determined from the relationship: […]

Compound | IC50 (motilin receptor) [nM] | pEC50 [2] | T1/2 [3] | ED50 [1] [nmol]
CC[C@H](C)[C@H](NC(=O)[C@H](C)NC(=O)[C@@H](NC(=O)[C@H](Cc1ccccc1)NC)C(C)C)C(=O)N[C@@H](Cc1ccccc1)C(=O)N[C@H](C(=O)N[C@@H](Cc1ccc(O)cc1)C(=O)NCC(=O)N[C@@H](CCC(=O)O)C(=O)N[C@@H](CC(C)C)C(=O)N[C@@H](CCC(N)=O)C(=O)N[C@H](CCCNC(=N)N)C(=O)N[C@@H](CC(C)C)C(=O)N[C@@H](CCCCN)C(N)=O)[C@@H](C)O (H-[NMeF]VAIFTYGELQ[dR]LK-NH2) | 0.631 | 7.72 | – | 0.06
CC[C@H](C)[C@H](NC(=O)[C@@H]1CCCN1C(=O)[C@@H](NC(=O)[C@H](Cc1ccccc1)N(C)C)C(C)C)C(=O)N[C@@H](Cc1ccccc1)C(=O)N[C@H](C(=O)N[C@@H](Cc1ccc(O)cc1)C(=O)NCC(=O)N[C@@H](CCC(=O)O)C(=O)N[C@@H](CC(C)C)C(=O)N[C@@H](CCC(N)=O)C(=O)N[C@H](CCCNC(=N)N)C(=O)N[C@@H](CC(C)C)C(=O)N[C@@H](CCCCN)C(N)=O)[C@@H](C)O (NMe2Phe-VPIFTYGELQ[dR]LK-NH2) | 1.17 | 7.73 | – | 0.002
CC[C@H](C)[C@H](NC(=O)[C@@H]1CCCN1C(=O)[C@@H](NC(=O)[C@H](Cc1ccccc1)NC)C(C)C)C(=O)N[C@@H](Cc1ccccc1)C(=O)N[C@H](C(=O)N[C@@H](Cc1ccc(O)cc1)C(=O)NCC(=O)N[C@@H](CCC(=O)O)C(=O)N[C@@H](CC(C)C)C(=O)N[C@@H](CCC(N)=O)C(=O)N[C@@H](CCCNC(=N)N)C(=O)N[C@@H](CC(C)C)C(=O)N[C@@H](CCC(N)=O)C(=O)O)[C@@H](C)O [[N-MePhe^1, Leu^13]pMOT(1-14)] (H-[NMeF]VPIFTYGELQRLQ-OH) | 2.63 | 7.64 | 12.8 | –
CC[C@H](C)[C@H](NC(=O)[C@@H]1CCCN1C(=O)[C@@H](NC(=O)[C@H](Cc1ccccc1)N(C)C)C(C)C)C(=O)N[C@@H](Cc1ccccc1)C(=O)N[C@H](C(=O)N[C@@H](Cc1ccc(O)cc1)C(=O)NCC(=O)N[C@@H](CCC(=O)O)C(=O)N[C@@H](CC(C)C)C(=O)N[C@@H](C)C(=O)N[C@H](CCCNC(=N)N)C(=O)N[C@@H](CC(C)C)C(=O)N[C@@H](CCCCN)C(N)=O)[C@@H](C)O (NMe2Phe-VPIFTYGELA[dR]LK-NH2) | 1.23 | 7.64 | – | 0.003
CC[C@H](C)[C@H](NC(=O)[C@H](C)NC(=O)[C@@H](NC(=O)[C@H](Cc1ccccc1)[N+](C)(C)C)C(C)C)C(=O)N[C@@H](Cc1ccccc1)C(=O)N[C@H](C(=O)N[C@@H](Cc1ccc(O)cc1)C(=O)NCC(=O)N[C@@H](CCC(=O)O)C(=O)N[C@@H](CC(C)C)C(=O)N[C@@H](CCC(N)=O)C(=O)N[C@H](CCCNC(=N)N)C(=O)N[C@@H](CC(C)C)C(=O)N[C@@H](CCCCN)C(N)=O)[C@@H](C)O (X1-VAIFTYGELQ[dR]LK-NH2) | 1.91 | 7.32 | – | 0.89
CC[C@H](C)[C@H](NC(=O)[C@@H]1CCCN1C(=O)[C@@H](NC(=O)[C@H](Cc1ccccc1)[N+](C)(C)C)C(C)C)C(=O)N[C@@H](Cc1ccccc1)C(=O)N[C@H](C(=O)N[C@@H](Cc1ccc(O)cc1)C(=O)NCC(=O)N[C@@H](CCC(=O)O)C(=O)N[C@@H](CC(C)C)C(=O)N[C@@H](CCC(N)=O)C(=O)N[C@H](CCCNC(=N)N)C(=O)N[C@@H](CC(C)C)C(=O)N[C@H](CCC(N)=O)C(N)=O)[C@@H](C)O (X1-VPIFTYGELQ[dR]L[dQ]-NH2) | 1.95 | 7.39 | 104 | –
CC[C@H](C)[C@H](NC(=O)[C@H](C)NC(=O)[C@@H](NC(=O)[C@H](Cc1ccccc1)[N+](C)(C)C)C(C)C)C(=O)N[C@@H](Cc1ccccc1)C(=O)N[C@H](C(=O)N[C@@H](Cc1ccc(O)cc1)C(=O)NCC(=O)N[C@@H](CCC(=O)O)C(=O)N[C@@H](CC(C)C)C(=O)N[C@@H](C)C(=O)N[C@H](CCCNC(=N)N)C(=O)N[C@@H](CC(C)C)C(=O)N[C@@H](CCCCN)C(N)=O)[C@@H](C)O (X1-VAIFTYGELA[dR]LK-NH2) | 1.91 | 7.59 | – | 0.001

Continued, in another order:

IC50 (motilin receptor) [nM] | pEC50 [2] | T1/2 [3] | Compound | ED50 [1] [nmol]
0.708 | 7.74 | – | CC[C@H](C)[C@H](NC(=O)[C@H](C)NC(=O)[C@@H](NC(=O)[C@H](Cc1ccccc1)N(C)C)C(C)C)C(=O)N[C@@H](Cc1ccccc1)C(=O)N[C@H](C(=O)N[C@@H](Cc1ccc(O)cc1)C(=O)NCC(=O)N[C@@H](CCC(=O)O)C(=O)N[C@@H](CC(C)C)C(=O)N[C@@H](C)C(=O)N[C@H](CCCNC(=N)N)C(=O)N[C@@H](CC(C)C)C(=O)N[C@@H](CCCCN)C(N)=O)[C@@H](C)O (NMe2Phe-VAIFTYGELA[dR]LK-NH2) | 0.003
0.447 | 7.80 | – | CC[C@H](C)[C@H](NC(=O)[C@H](C)NC(=O)[C@@H](NC(=O)[C@H](Cc1ccccc1)NC)C(C)C)C(=O)N[C@@H](Cc1ccccc1)C(=O)N[C@H](C(=O)N[C@@H](Cc1ccc(O)cc1)C(=O)NCC(=O)N[C@@H](CCC(=O)O)C(=O)N[C@@H](CC(C)C)C(=O)N[C@@H](C)C(=O)N[C@H](CCCNC(=N)N)C(=O)N[C@@H](CC(C)C)C(=O)N[C@H](CCCCN)C(N)=O)[C@@H](C)O [[1-N-Methylphenylalanine, 3-alaninc, 11-alanine, 12-D-arginine, 13-Leucine, 14-D-lysine]motilin-(1-14)-peptide Amide (Porcine) Tris-trifluoroacetate Salt] (H-[NMeF]VAIFTYGELA[dR]L[dK]-NH2) | 0.024
0.724 | 7.77 | – | CC[C@H](C)[C@H](NC(=O)[C@H](C)NC(=O)[C@@H](NC(=O)[C@H](Cc1ccccc1)NC)C(C)C)C(=O)N[C@@H](Cc1ccccc1)C(=O)N[C@H](C(=O)N[C@@H](Cc1ccc(O)cc1)C(=O)NCC(=O)N[C@@H](CCC(=O)O)C(=O)N[C@@H](CC(C)C)C(=O)N[C@@H](C)C(=O)N[C@H](CCCNC(=N)N)C(=O)N[C@@H](CC(C)C)C(=O)N[C@@H](CCCCN)C(N)=O)[C@@H](C)O (H-[NMeF]VAIFTYGELA[dR]LK-NH2) | 0.001
1.15 | 7.55 | – | CC[C@H](C)[C@H](NC(=O)[C@H](C)NC(=O)[C@@H](NC(=O)[C@H](Cc1ccccc1)[N+](C)(C)C)C(C)C)C(=O)N[C@@H](Cc1ccccc1)C(=O)N[C@H](C(=O)N[C@@H](Cc1ccc(O)cc1)C(=O)NCC(=O)N[C@@H](CCC(=O)O)C(=O)N[C@@H](CC(C)C)C(=O)N[C@@H](C)C(=O)N[C@H](CCCNC(=N)N)C(=O)N[C@@H](CC(C)C)C(=O)N[C@H](CCCCN)C(N)=O)[C@@H](C)O (X1-VAIFTYGELA[dR]L[dK]-NH2) | 0.007
